Assays:
[1] = system: Albino wistar rats; test: Hypoglycemic activity: inhibition of sucrose-induced raise in serum glucose levels (SGL); assay type: in vivo, rat; settings: for Increased SGL (mean ± SE): 20 mL/kg of 20% sucrose after 30 min, blood one hour after treatment, rats; for % of inhibition (increase in serum glucose levels vs control): sucrose-loaded rats
Description: Hypoglycemic activity: Hypoglycemic activity was tested by the inhibition of sucrose-induced raise in serum glucose levels (SGL), by the V. leucoxylon extracts in Albino wistar rats. The procedure involves fasting the rats for overnight at ad libitum water, numbered weighed and randomly divided into groups of three animals each. Prior to treatment blood samples were drawn from sinus orbital plexus of all animals using heparin coated glass capillaries under mild ether anesthesia. The blood samples were tested for serum glucose levels using enzymatic GOD/POD method. Optical densities were measured at 500 nm, SGL was calculated as follows. SGL=(test OD/Standard OD)×100 and the results were expressed in mg/dL. All the groups were treated orally with corresponding test substances, standard, vehicle (5% gum acacia). After 30 minutes, all animals were given 20 mL/kg of 20% sucrose solution orally using gastric tube. One hour after treatment, blood samples were drawn again under mild ether anesthesia and tested for serum glucose levels in a similar procedure as described above for initial serum glucose estimation. The data was subjected to statistical treatment using t-test and inhibitory rate was calculated by comparing mean increase in serum glucose levels of control and red groups.

[2] = system: Albino wistar rats; test: Anti-inflammatory activity (Carrageenin induced paw edema method); assay type: in vivo; settings: Rattus norvegicus, oral dose 25 mg/Kg, 3 h after carrageenin
Description: Anti-inflammatory activity (Carrageenin induced paw edema method): Prior to the experiment all the animals (Albino wistar rats of either sex weighing between 180-300 g) fasted at ad libitum water and were weighed, numbered and randomly divided into groups, each containing 3 animals. Initial paw volumes were measured using plethesmometer and noted. All the groups were treated with corresponding test substance orally using gastric tube. Control group was treated with 10 mL/Kg vehicle (0.5%, carboxymethyl cellulose sodium salt). After 30 minutes, all the animals were injected subcutaneously at subplantar region of left hind paw 1% carrageenin 0.1 mL using hypodermic needle. All the animals were administered water 20 mL/Kg body weight and kept devoid of water for 3 h (maintained uniform hydration). After 3 h, paw volumes of all the animals were measured twice and average volume from two measurements were recorded. The % of inhibition of paw edema was calculated by comparing paw edema of test substance treated groups with that of control groups.

Compound: C[C@H]1[C@H](C)CC[C@]2(C(=O)O)CC[C@]3(C)C(=CC[C@@H]4[C@@]5(C)C[C@@H](O)[C@H](O)C(C)(C)[C@@H]5CC[C@]43C)[C@H]12 [Corosolic acid]
- Increased SGL (mean ± SE) ([1]; oral dose 1 mg/Kg): 27.72 ± 3.27 mg/dL
- % of inhibition (increase in serum glucose levels vs control) ([1]; oral dose 1 mg/Kg): 9.78%

Compound: O=C(O)Cc1ccccc1Nc1c(Cl)cccc1Cl [Diclofenac sodium]
- inhibition at 25 mg/kg [2]: 63.1%

Compound: COc1ccc(Cl)cc1C(=O)NCCc1ccc(S(=O)(=O)NC(=O)NC2CCCCC2)cc1 [Glibenclamide]
- Increased SGL (mean ± SE) ([1]; oral dose 25 mg/Kg): 6.12 ± 4.32 mg/dL
- % of inhibition (increase in serum glucose levels vs control) ([1]; oral dose 25 mg/Kg): 80.0%

From patent US7780997B2, “Pharmaceutically active extracts of vitex leucoxylon, a process of extracting the same and a method of treating diabetes and inflammatory diseases therewith” (Laila Impex, priority 2005, dated 2010)
